In patent US9932340B2, “Substituted indoles” (AbbVie Inc., priority 2014, dated 2018) one finds IC50 data, which are given here for 33 compounds.

SUV420H1 enzyme, sequence (Q4FZB7 whole entry): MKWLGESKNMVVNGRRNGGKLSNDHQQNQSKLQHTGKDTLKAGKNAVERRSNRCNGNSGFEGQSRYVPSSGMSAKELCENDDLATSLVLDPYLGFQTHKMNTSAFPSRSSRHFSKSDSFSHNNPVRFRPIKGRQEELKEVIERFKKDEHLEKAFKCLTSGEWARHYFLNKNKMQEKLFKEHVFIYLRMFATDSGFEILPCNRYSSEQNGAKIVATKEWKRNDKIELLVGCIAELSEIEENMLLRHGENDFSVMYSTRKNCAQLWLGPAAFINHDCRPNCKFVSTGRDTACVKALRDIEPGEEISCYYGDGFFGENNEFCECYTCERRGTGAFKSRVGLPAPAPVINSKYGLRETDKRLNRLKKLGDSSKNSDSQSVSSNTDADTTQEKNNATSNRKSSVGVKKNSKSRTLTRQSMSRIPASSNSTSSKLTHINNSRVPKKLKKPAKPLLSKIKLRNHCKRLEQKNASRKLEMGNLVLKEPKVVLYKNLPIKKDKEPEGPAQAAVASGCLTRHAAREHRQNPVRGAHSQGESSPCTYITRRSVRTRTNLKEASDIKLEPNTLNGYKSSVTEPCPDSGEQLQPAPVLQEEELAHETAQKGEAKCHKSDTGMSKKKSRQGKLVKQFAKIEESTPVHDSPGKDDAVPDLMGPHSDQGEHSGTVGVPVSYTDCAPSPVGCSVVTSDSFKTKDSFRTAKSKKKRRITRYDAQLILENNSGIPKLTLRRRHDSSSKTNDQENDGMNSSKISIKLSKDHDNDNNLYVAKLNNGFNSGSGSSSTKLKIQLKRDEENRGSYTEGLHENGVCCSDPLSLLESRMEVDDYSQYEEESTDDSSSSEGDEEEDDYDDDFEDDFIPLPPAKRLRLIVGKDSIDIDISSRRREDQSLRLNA

The test deals with SUV420H1 enzyme (Homo sapiens, UniProt Q4FZB7). The experiment in a line: TR-FRET SAH SUV420H1 enzyme inhibition assay. The class given is biochemical. The conditions noted are these: Histone Peptide H4(8-30)me1 and SAM, overnight at room temp, TR-FRET detection of SAH, read-out: TR-FRET SAH_SUV420H1 IC50. Summed up:
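SUV420H1 (90 nM) preincubated 30 min with compound (3-fold dilutions, 50 to 0.00075 μM), then H4(8-30)me1 peptide 5 nM and SAM 4 nM added, overnight at room temp. SAH product detected by TR-FRET with Tb anti-SAH antibody and Oregon Green-SAH in RIPA buffer, 4 h; IC50 from Hill fit, asymptotes fixed 0-100%.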
In general terms: TR-FRET usually uses a lanthanide donor and a delayed reading to cut background.
A word on the IC50: it is the concentration that gives 50% inhibition. For the compound `Nc1ncnc2c1ncn2Cc1cc(Cl)cc2cc(CNCCC(=O)O)[nH]c12` [Example 96, 3-[({7-[(6-amino-9H-purin-9-yl)methyl]-5-chloro-1H-indol-2-yl}methyl)amino]propanoic acid], the IC50 stood at 16300 nM. In the case of `Cc1noc(C)c1C(=O)NCc1cc2cc(-c3ccc(NS(C)(=O)=O)cc3)cc(Cn3cnc4c(N)ncnc43)c2[nH]1` [Example 174, N-[(7-[(6-amino-9H-purin-9-yl)methyl]-5-{4-[(methylsulfonyl)amino]phenyl}-1H-indol-2-yl)methyl]-3,5-dimethyl-1,2-oxazole-4-carboxamide] it was 101 nM; in that of `COc1ccccc1C(=O)NCc1cc2cc(Cl)cc(Cn3cnc4c(N)ncnc43)c2[nH]1` [Example 260, N-({7-[(6-amino-9H-purin-9-yl)methyl]-5-chloro-1H-indol-2-yl}methyl)-2-methoxybenzamide], 3550 nM; in that of `CN(C)c1cccc(C(=O)NCc2cc3cc(Cl)cc(Cn4cnc5c(N)ncnc54)c3[nH]2)c1` [Example 309, N-({7-[(6-amino-9H-purin-9-yl)methyl]-5-chloro-1H-indol-2-yl}methyl)-3-(dimethylamino)benzamide], 7310 nM. Turning to `CCc1onc(C)c1C(=O)NCc1cc2cc(Cl)cc(Cn3cnc4c(N)ncnc43)c2[nH]1` [Example 185, N-({7-[(6-amino-9H-purin-9-yl)methyl]-5-chloro-1H-indol-2-yl}methyl)-5-ethyl-3-methyl-1,2-oxazole-4-carboxamide], the IC50 stood at 691 nM.

`C=C(C)c1ccc2cc(CN)[nH]c2c1Cn1cnc2c(N)ncnc21` [Example 60, 9-{[2-(aminomethyl)-6-(prop-1-en-2-yl)-1H-indol-7-yl]methyl}-9H-purin-6-amine]: the IC50 came out at 38400 nM. In the case of `Nc1ncnc2c1ncn2Cc1cc(Cl)cc2cc(CNC(=O)[C@@H]3CCCN3)[nH]c12` [Example 115, (2S)—N-({7-[(6-amino-9H-purin-9-yl)methyl]-5-chloro-1H-indol-2-yl}methyl)pyrrolidine-2-carboxamide] it was 3530 nM; in that of `CC(C)(C)OC(=O)CNCc1cc2cc(Cl)cc(Cn3cnc4c(N)ncnc43)c2[nH]1` [Example 106, tert-butyl [({7-[(6-amino-9H-purin-9-yl)methyl]-5-chloro-1H-indol-2-yl}methyl)amino]acetate], 3320 nM. Regarding `CC(=O)N1CCC(c2cc(Cn3cnc4c(N)ncnc43)c3[nH]c(CNC(=O)c4ccc(C#N)cc4Cl)cc3c2)CC1` [Example 281, N-({5-(1-acetylpiperidin-4-yl)-7-[(6-amino-9H-purin-9-yl)methyl]-1H-indol-2-yl}methyl)-2-chloro-4-cyanobenzamide], the IC50 came to 141 nM. In the case of `Cc1cc(C(=O)NCc2cc3cc(C4=CCNCC4)cc(Cn4cnc5c(N)ncnc54)c3[nH]2)c(C)nn1` [Example 235, N-({7-[(6-amino-9H-purin-9-yl)methyl]-5-(1,2,3,6-tetrahydropyridin-4-yl)-1H-indol-2-yl}methyl)-3,6-dimethylpyridazine-4-carboxamide] it was 49.2 nM; in that of `Nc1ncnc2c1ncn2Cc1cc(Cl)cc2cc(CNC(=O)c3ccc4[nH]nnc4c3)[nH]c12` [Example 331, N-({7-[(6-amino-9H-purin-9-yl)methyl]-5-chloro-1H-indol-2-yl}methyl)-1H-benzotriazole-6-carboxamide], 2580 nM; in that of `Cc1noc(C)c1C(=O)NCc1cc2cc(-c3ccc(S(C)(=O)=O)cc3)cc(Cn3cnc4c(N)ncnc43)c2[nH]1` [Example 170, N-({7-[(6-amino-9H-purin-9-yl)methyl]-5-[4-(methylsulfonyl)phenyl]-1H-indol-2-yl}methyl)-3,5-dimethyl-1,2-oxazole-4-carboxamide], 208 nM. Consider `Cc1nn(C)cc1C(=O)NCc1cc2cc(Cl)cc(Cn3cnc4c(N)ncnc43)c2[nH]1` [Example 184, N-({7-[(6-amino-9H-purin-9-yl)methyl]-5-chloro-1H-indol-2-yl}methyl)-1,3-dimethyl-1H-pyrazole-4-carboxamide], for which the IC50 amounted to 840 nM. In the case of `Nc1ncnc2c1ncn2Cc1cc(Cl)cc2cc(CNCc3cccc(Cl)c3)[nH]c12` [Example 209, 9-[(5-chloro-2-{[(3-chlorobenzyl)amino]methyl}-1H-indol-7-yl)methyl]-9H-purin-6-amine] it was 1920 nM; in that of `N#Cc1ccccc1C(=O)NCc1cc2cc(Cl)cc(Cn3cnc4c(N)ncnc43)c2[nH]1` [Example 274, N-({7-[(6-amino-9H-purin-9-yl)methyl]-5-chloro-1H-indol-2-yl}methyl)-2-cyanobenzamide], 11300 nM; in that of `NCc1cc2c(-c3ccccc3)ccc(Cn3cnc4c(N)ncnc43)c2[nH]1` [Example 70, 9-{[2-(aminomethyl)-4-phenyl-1H-indol-7-yl]methyl}-9H-purin-6-amine], 1000 nM.

Turning to `CC(=O)NCc1cc2cc(Cl)cc(Cn3cnc4c(N)ncnc43)c2[nH]1` [Example 92, N-({7-[(6-amino-9H-purin-9-yl)methyl]-5-chloro-1H-indol-2-yl}methyl)acetamide], the IC50 was over 50000 nM. Regarding `Nc1ncnc2c1ncn2Cc1cc(Cl)cc2cc(CN(CC(=O)O)CC(=O)O)[nH]c12` [Example 101, 2,2′-[({7-[(6-amino-9H-purin-9-yl)methyl]-5-chloro-1H-indol-2-yl}methyl)imino]diacetic acid], the IC50 is over 50000 nM. In the case of `CS(=O)(=O)c1cccc(CNCc2cc3cc(Cl)cc(Cn4cnc5c(N)ncnc54)c3[nH]2)c1` [Example 262, 9-{[5-chloro-2-({[3-(methylsulfonyl)benzyl]amino}methyl)-1H-indol-7-yl]methyl}-9H-purin-6-amine] it was 2750 nM.

With `Nc1ncnc2c1ncn2Cc1cc(Cl)cc2cc(CNC(=O)c3ccc4scnc4c3)[nH]c12` [Example 336, N-({7-[(6-amino-9H-purin-9-yl)methyl]-5-chloro-1H-indol-2-yl}methyl)-1,3-benzothiazole-5-carboxamide], the IC50 was determined as 431 nM. Take `Cc1nnccc1C(=O)NCc1cc2cc(Cl)cc(Cn3cnc4c(N)ncnc43)c2[nH]1` [Example 199, N-({7-[(6-amino-9H-purin-9-yl)methyl]-5-chloro-1H-indol-2-yl}methyl)-3-methylpyridazine-4-carboxamide]: the IC50 amounted to 93.9 nM. Regarding `NCc1cc2cc(-c3ccc(F)cc3)cc(Cn3cnc4c(N)ncnc43)c2[nH]1` [Example 26, 9-{[2-(aminomethyl)-5-(4-fluorophenyl)-1H-indol-7-yl]methyl}-9H-purin-6-amine], the IC50 was 474 nM. In the case of `NCc1cc2cc(C3=CCNCC3)cc(Cn3cnc4c(N)ncnc43)c2[nH]1` [Example 13, 9-{[2-(aminomethyl)-5-(1,2,3,6-tetrahydropyridin-4-yl)-1H-indol-7-yl]methyl}-9H-purin-6-amine] it was 135 nM. In the case of `CCc1ccc(Cn2cnc3c(N)ncnc32)c2[nH]c(CN)cc12` [Example 64, 9-{[2-(aminomethyl)-4-ethyl-1H-indol-7-yl]methyl}-9H-purin-6-amine] it was 3080 nM; in that of `CS(=O)(=O)Nc1cccc(-c2cc(Cn3cnc4c(N)ncnc43)c3[nH]c(CN)cc3c2)c1` [Example 42, N-(3-{2-(aminomethyl)-7-[(6-amino-9H-purin-9-yl)methyl]-1H-indol-5-yl}phenyl)methanesulfonamide], 450 nM. For `Nc1ncnc2c1ncn2Cc1cc(Cl)cc2cc(CNCc3cccc(CN4CCCCC4)c3)[nH]c12` [Example 323, 9-{[5-chloro-2-({[3-(piperidin-1-ylmethyl)benzyl]amino}methyl)-1H-indol-7-yl]methyl}-9H-purin-6-amine], the IC50 is 345 nM. In the case of `Cc1noc(C)c1C(=O)NCc1cc2cc(-c3ccc(S(N)(=O)=O)cc3)cc(Cn3cnc4c(N)ncnc43)c2[nH]1` [Example 166, N-({7-[(6-amino-9H-purin-9-yl)methyl]-5-(4-sulfamoylphenyl)-1H-indol-2-yl}methyl)-3,5-dimethyl-1,2-oxazole-4-carboxamide] it was 88.9 nM; in that of `CC(=O)c1cc2cc(Cl)cc(Cn3cnc4c(N)ncnc43)c2[nH]1` [Example 87, 1-{7-[(6-amino-9H-purin-9-yl)methyl]-5-chloro-1H-indol-2-yl}ethanone], over 50000 nM. As to `Nc1ncnc2c1ncn2Cc1cc(Cl)cc2cc(CNC(=O)c3ccc(Cl)cc3)[nH]c12` [Example 221, N-({7-[(6-amino-9H-purin-9-yl)methyl]-5-chloro-1H-indol-2-yl}methyl)-4-chlorobenzamide], the IC50 stood at 6240 nM. In the case of `N#Cc1ccc(C(=O)NCc2cc3cc(Cl)cc(Cn4cnc5c(N)ncnc54)c3[nH]2)c(Cl)c1` [Example 276, N-({7-[(6-amino-9H-purin-9-yl)methyl]-5-chloro-1H-indol-2-yl}methyl)-2-chloro-4-cyanobenzamide] it was 39 nM; in that of `COc1ccc(CC(=O)NCc2cc3cc(Cl)cc(Cn4cnc5c(N)ncnc54)c3[nH]2)cc1` [Example 297, N-({7-[(6-amino-9H-purin-9-yl)methyl]-5-chloro-1H-indol-2-yl}methyl)-2-(4-methoxyphenyl)acetamide], 6040 nM; in that of `Cc1noc(C)c1C(=O)NCc1cc2cc(C3=CCCNC3)cc(Cn3cnc4c(N)ncnc43)c2[nH]1` [Example 163, N-({7-[(6-amino-9H-purin-9-yl)methyl]-5-(1,2,5,6-tetrahydropyridin-3-yl)-1H-indol-2-yl}methyl)-3,5-dimethyl-1,2-oxazole-4-carboxamide], 127 nM. Regarding `Nc1ncnc2c1ncn2Cc1cc(Cl)cc2cc(CNC(=O)c3ccsc3)[nH]c12` [Example 145, N-({7-[(6-amino-9H-purin-9-yl)methyl]-5-chloro-1H-indol-2-yl}methyl)thiophene-3-carboxamide], the IC50 is 2400 nM.
